Measured values published in article PMC4110683 (Chemistry and physics of lipids, 2013).
Values after ≈ are worked out from the molar mass of the structure shown. Read-outs that look alike come from different tables or passages of the source.

Columns and labels:
[1] = biological target: PfFabG (Plasmodium falciparum, UniProt Q8I2S7); assay: biochemical
[2] = biological target: T1, PfFabI (Plasmodium falciparum, UniProt Q9BH77); assay: Inhibition of PfFabI; format: biochemical
T1 sequence (Q9BH77 22-432): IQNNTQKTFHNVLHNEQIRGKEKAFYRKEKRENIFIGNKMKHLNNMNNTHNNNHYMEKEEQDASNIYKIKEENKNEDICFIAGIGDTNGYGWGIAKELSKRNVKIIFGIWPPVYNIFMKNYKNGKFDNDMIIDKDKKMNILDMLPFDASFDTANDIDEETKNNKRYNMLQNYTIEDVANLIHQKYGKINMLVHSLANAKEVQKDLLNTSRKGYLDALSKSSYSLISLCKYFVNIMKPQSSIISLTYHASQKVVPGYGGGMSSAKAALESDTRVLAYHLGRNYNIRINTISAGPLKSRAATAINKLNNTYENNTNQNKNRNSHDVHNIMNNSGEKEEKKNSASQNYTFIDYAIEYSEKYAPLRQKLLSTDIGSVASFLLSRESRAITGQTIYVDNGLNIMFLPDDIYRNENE

[3] = system: L. donovani promastigotes; conditions: cited from earlier work; for Motility of L. donovani promastigotes: at levels of 100 μg/mL, ref Cunningham et al., 1972; for Motility of L. donovani promastigotes / Effectiveness towards L. donovani: in words; for EC50 L. donovani promastigotes / Effectiveness towards L. donovani / IC50: ref Carballeira et al.; for EC50 L. donovani promastigotes / Effectiveness towards L. donovani: 2009; for IC50: read-out: IC50 L. donovani promastigotes, 2012; for MIC L. donovani promastigotes: ref Chaudhuri et al., 1986
[4] = system: P. falciparum K1; assay: Toxicity to P. falciparum K1 strain; format: cell-based, Plasmodium falciparum; conditions: Plasmodium falciparum, K1, read-out: IC50 P. falciparum K1
[5] = biological target: T2, PfFabZ (Plasmodium falciparum, UniProt Q965D7); assay: Inhibition of PfFabZ; format: biochemical
T2 sequence (Q965D7 19-230): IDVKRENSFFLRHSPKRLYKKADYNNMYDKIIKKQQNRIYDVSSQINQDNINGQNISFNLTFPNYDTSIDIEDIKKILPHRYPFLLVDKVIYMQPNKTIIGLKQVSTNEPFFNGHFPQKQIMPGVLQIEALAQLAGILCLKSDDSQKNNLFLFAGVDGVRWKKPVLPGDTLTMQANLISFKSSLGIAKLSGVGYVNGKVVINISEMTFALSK

[6] = system: M. smegmatis mc^2 155; conditions: ref Morbidoni et al., 2006; cited from earlier work
[7] = biological target: T3, hTopIB (Homo sapiens, UniProt P11387); conditions: read-out: hTopIB EC50; relaxation activity; ref Carballeira et al., 2012; cited from earlier work
T3 sequence (P11387 1-765): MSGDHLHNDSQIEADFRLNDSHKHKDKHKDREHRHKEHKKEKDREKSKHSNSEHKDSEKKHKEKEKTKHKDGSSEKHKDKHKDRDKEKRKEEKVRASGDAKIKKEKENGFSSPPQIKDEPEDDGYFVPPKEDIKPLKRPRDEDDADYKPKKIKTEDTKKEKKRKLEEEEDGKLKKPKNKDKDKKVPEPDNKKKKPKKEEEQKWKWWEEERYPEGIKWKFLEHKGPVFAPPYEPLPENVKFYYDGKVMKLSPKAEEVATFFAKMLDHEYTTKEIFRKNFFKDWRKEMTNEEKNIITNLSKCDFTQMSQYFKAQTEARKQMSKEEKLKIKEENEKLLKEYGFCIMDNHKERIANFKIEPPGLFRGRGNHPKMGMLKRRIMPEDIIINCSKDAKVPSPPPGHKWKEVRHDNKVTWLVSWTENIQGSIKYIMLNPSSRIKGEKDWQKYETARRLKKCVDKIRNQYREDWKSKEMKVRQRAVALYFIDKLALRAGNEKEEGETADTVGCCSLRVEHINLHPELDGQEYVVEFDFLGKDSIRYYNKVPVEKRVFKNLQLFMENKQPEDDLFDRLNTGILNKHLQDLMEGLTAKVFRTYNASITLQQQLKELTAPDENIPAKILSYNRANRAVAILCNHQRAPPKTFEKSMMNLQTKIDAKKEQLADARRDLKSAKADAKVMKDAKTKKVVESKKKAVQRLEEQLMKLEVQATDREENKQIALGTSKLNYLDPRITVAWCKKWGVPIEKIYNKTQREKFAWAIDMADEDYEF

[8] = system: LdTopIB; conditions: ref Carballeira et al., cited from earlier work
[9] = system: BALB/c murine macrophages; conditions: read-out: Murine macrophages BALB/c IC50; ref Carballeira et al., 2012; cited from earlier work
[10] = system: Mycobacterium tuberculosis H37Rv; conditions: ref Morbidoni et al., 2006; cited from earlier work
[11] = system: P. falciparum K1; conditions: ref Suksamrarn et al., 2005; cited from earlier work
[12] = system: FCR3 strain of P. falciparum; conditions: ref Krugliak et al., 1995; cited from earlier work
[13] = system: Bacteroides fragilis; conditions: ref Konthikamee et al., 1982; cited from earlier work
[14] = system: Leishmania infantum promastigotes; conditions: read-out: IC50 Leishmania infantum promastigotes; ref Carballeira et al., 2012; cited from earlier work
[15] = system: InhA, the enoyl-ACP reductase; conditions: in words; ref Morbidoni et al., 2006; cited from earlier work
[16] = system: Staphylococcus aureus; conditions: ref Konthikamee et al., 1982; cited from earlier work
[17] = biological target: T3, hTopIB; assay: Inhibition of relaxation activity of hTopIB; format: biochemical
[18] = biological target: T2, PfFabZ; conditions: with respect to the substrate; ref Tasdemir et al., 2010; cited from earlier work
[19] = biological target: T1, PfFabI; conditions: with respect to crotonyl-CoA and the cofactor NADH; ref Tasdemir et al., 2010; cited from earlier work
[20] = system: Pseudomonas aeruginosa; conditions: in words; ref Konthikamee et al., 1982; cited from earlier work
[21] = system: Neisseria flava; conditions: ref Konthikamee et al., 1982; cited from earlier work
[22] = system: hepatoma 7288 (HTC) cells; conditions: ref Upreti et al., 1981; cited from earlier work
[23] = system: Escherichia coli; conditions: in words; ref Konthikamee et al., 1982; cited from earlier work
[24] = system: P. falciparum; conditions: in words; ref Kumaratilake et al., 1992; 1997; cited from earlier work
[25] = read-out: LdTopIB EC50, relaxation activity, 2012

Question: With `CCCCCCCCCCCCCCCC(=O)O` [16:0, hexadecanoic acid, reference compound] as the compound, how does the IC50 [1] read?
Answer: > 100 µM

Question: And the IC50 [2]?
Answer: > 100 µM

Question: And the “Motility of L. donovani promastigotes” value [3]?
Answer: inhibited the motility

Question: And the IC50 [4]?
Answer: > 100 µM

Question: And the IC50 [5]?
Answer: > 100 µM

Question: With `CCCCCCCCCCC#CCCCCC(=O)O` [6-heptadecynoic, 6-heptadecynoic acid] as the compound, how does the “EC50 L. donovani promastigotes” value [3] read?
Answer: 1 to 6 µg/mL

Question: Which “MIC against M. smegmatis mc^2 155” value [6] does the source give for `CCCCCCCCCCCCCC#CCCC(=O)O` [4-Octadecynoic acid] here?
Answer: >300 µM

Question: For `CCCCCCCCCCCCCCCCC(=O)O` [n-heptadecanoic acid, reference compound], which “Effectiveness towards L. donovani” value [3] is on record?
Answer: not effective

Question: With `CCCCCCCCCCCC#CC(=O)O` [2-TDA, 2-tetradecynoic acid] as the compound, how does the EC50 [7] read?
Answer: > 100 µM

Question: And the EC50 [8, 25]?
Answer: 67.8 ± 1.1 µM

Question: What about the IC50 [1] of the same compound?
Answer: 24.5 µM

Question: And the IC50 [2]?
Answer: 5.3 µM

Question: And the IC50 [9]?
Answer: > 100 µM

Question: What about the “MIC against M. smegmatis mc^2 155” value [6] of the same compound?
Answer: 266 µM (≈ 59.7 µg/mL)

Question: What about the IC50 [3] of the same compound?
Answer: 24.7 µM

Question: What about the IC50 [4] of the same compound?
Answer: 122 µM

Question: And the IC50 [5]?
Answer: 15.6 µM

Question: Which “MIC against M. smegmatis mc^2 155” value [6] does the source give for `CCCCCCCCCCCCCCCCCC#CC(=O)O` [2-Eicosynoic acid] here?
Answer: >300 µM

Question: With `CCCCCCCCCCCCC#CCCCC(=O)O` [5-Octadecynoic acid] as the compound, how does the “MIC against M. smegmatis mc^2 155” value [6] read?
Answer: 360 µM (≈ 101 µg/mL)

Question: For `CCCCCCCCCCC#CCCCC(=O)O` [5-Hexadecynoic acid], which “MIC against M. smegmatis mc^2 155” value [6] is on record?
Answer: 80 µM (≈ 20.2 µg/mL)

Question: For `CCCCCCCCCCCCCCCCCCCC#CC(=O)O` [2-Docosynoic acid], which “MIC against M. smegmatis mc^2 155” value [6] is on record?
Answer: >300 µM

Question: With `CCCCCCCCCCCCCCCCC#CC(=O)O` [2-Nonadecynoic acid] as the compound, how does the “MIC against Mycobacterium tuberculosis H37Rv” value [10] read?
Answer: 20 to 25 µM

Question: What about the “MIC against M. smegmatis mc^2 155” value [6] of the same compound?
Answer: 35 µM (≈ 10.3 µg/mL)

Question: Which “IC50 K1 multidrug-resistant P. falciparum” value [11] does the source give for `C=CCCC#CCCCCCCCCCCCC(=O)O` [scleropyric acid] here?
Answer: 7.2 µg/mL (≈ 25.9 µM)

Question: For `CCCCC/C=C\C/C=C\CCCCCCCC(=O)O` [linoleic acid], which “IC50 killing FCR3 strain of P. falciparum” value [12] is on record?
Answer: 76 µg/mL

Question: With `CC[C@@]1(O)C(=O)OCc2c1cc1n(c2=O)Cc2cc3ccccc3nc2-1` [CPT, camptothecin, reference compound] as the compound, how does the EC50 [8, 25] read?
Answer: 0.67 ± 0.08 µM

Question: What about the IC50 [9] of the same compound?
Answer: 0.62 ± 0.13 µM

Question: For `CCCCCCCCCC#CC(=O)O` [2-Dodecynoic acid], which “MIC against M. smegmatis mc^2 155” value [6] is on record?
Answer: >300 µM

Question: With `CCCCCCCCCCCCCCCCCC(=O)O` [octadecanoic acid] as the compound, how does the “MIC L. donovani promastigotes” value [3] read?
Answer: 1.39 µmol/mL (≈ 395 µg/mL)

Question: Which “Motility of L. donovani promastigotes” value [3] does the source give for `CCCCCCCCCC(=O)O` [n-decanoic acid] here?
Answer: inhibited the motility

Question: For `CCCCCCCCCCCCCCCCCCCC(=O)O` [n-eicosanoic acid, reference compound], which “Effectiveness towards L. donovani” value [3] is on record?
Answer: not effective

Question: With `CCCCCCCCCCCCCC#CC(=O)O` [2-HDA, 2-hexadecynoic acid] as the compound, how does the “MIC Bacteroides fragilis” value [13] read?
Answer: 21.4 µM (≈ 5.4 µg/mL)

Question: And the EC50 [7]?
Answer: > 100 µM

Question: What about the IC50 [14] of the same compound?
Answer: 14.9 µM

Question: What about the EC50 [8, 25] of the same compound?
Answer: 28.7 ± 1.3 µM

Question: What about the “MIC against Mycobacterium tuberculosis H37Rv” value [10] of the same compound?
Answer: 20 to 25 µM

Question: And the IC50 ([1]; read-out: IC50 PfFabG, Carballeira and Tasdemir, unpublished data)?
Answer: 13.9 µM

Question: What about the “Inhibition of InhA” value [15] of the same compound?
Answer: able to inhibit

Question: And the “MIC Staphylococcus aureus” value [16]?
Answer: 21.4 µM (≈ 5.4 µg/mL)

Question: And the IC50 [17]?
Answer: 361 ± 1 µM

Question: What about the “Mode of inhibition of PfFabZ” value [18] of the same compound?
Answer: competitively inhibit

Question: What about the IC50 ([2]; read-out: IC50 PfFabI, Carballeira and Tasdemir, unpublished data) of the same compound?
Answer: 1.5 µM

Question: And the IC50 [9]?
Answer: > 100 µM

Question: And the “Mode of inhibition of PfFabI” value [19]?
Answer: non-competitive

Question: And the “Effectiveness against Pseudomonas aeruginosa” value [20]?
Answer: not effective

Question: And the “MIC against M. smegmatis mc^2 155” value [6]?
Answer: 10 µM (≈ 2.52 µg/mL)

Question: And the “MIC Neisseria flava” value [21]?
Answer: 21.4 µM (≈ 5.4 µg/mL)

Question: What about the IC50 [3] of the same compound?
Answer: 17.8 µM

Question: And the “LD50, growth of cultured hepatoma 7288 (HTC) cells” value [22]?
Answer: 35 to 85 µM

Question: And the IC50 [4]?
Answer: 41.2 µM

Question: What about the “Effectiveness against Escherichia coli” value [23] of the same compound?
Answer: not effective

Question: For `CCCCCCCCCCCCCCC#CCC(=O)O` [3-Octadecynoic acid], which “MIC against M. smegmatis mc^2 155” value [6] is on record?
Answer: 36 µM (≈ 10.1 µg/mL)

Question: With `CCCCCCCCCCCC(=O)O` [n-dodecanoic acid] as the compound, how does the “Motility of L. donovani promastigotes” value [3] read?
Answer: inhibited the motility

Question: With `CC/C=C\C/C=C\C/C=C\CCCCCCCC(=O)O` [linolenic acid] as the compound, how does the “IC50 killing FCR3 strain of P. falciparum” value [12] read?
Answer: 92 µg/mL

Question: Which “MIC against M. smegmatis mc^2 155” value [6] does the source give for `CCCCCCCCCCCCC#CCC(=O)O` [3-Hexadecynoic acid] here?
Answer: 20 µM (≈ 5.05 µg/mL)

Question: With `CCCCCCCCCCCC#CCCC(=O)O` [4-Hexadecynoic acid] as the compound, how does the “MIC against M. smegmatis mc^2 155” value [6] read?
Answer: 30 µM (≈ 7.57 µg/mL)

Question: Which results are given for `CCCCCCCCCCCCCC#CCCCCC(=O)O` [6-icosynoic acid]?
Answer: EC50 ([8]; read-out: EC50 LdTopIB, 2009): 36 to 49 µM; EC50 L. donovani promastigotes [3]: 1 to 6 µg/mL

Question: For `CCCCCCCC/C=C\CCCCCCCC(=O)O` [oleic acid, 9-cis-Octadecenoic acid, reference compound], which “Parasite killing of P. falciparum” value [24] is on record?
Answer: negligible parasite killing

Question: And the “Motility of L. donovani promastigotes” value [3]?
Answer: no effect

Question: And the “MIC L. donovani promastigotes” value [3]?
Answer: 0.09 µmol/mL (≈ 25.4 µg/mL)

Question: And the “IC50 killing FCR3 strain of P. falciparum” value [12]?
Answer: 23 µg/mL
